These results are taken from ChEMBL document CHEMBL1144845, “Ligand binding efficiency: trends, physical basis, and implications” (J Med Chem, 2008).

Structures are written as SMILES.

This assay can be described thus: Binding affinity to carbonic anhydrase.
With `CN1C(CN2CCOCC2)=Cc2sc(S(N)(=O)=O)cc2S1(=O)=O`, the “Log Ki” value is reported as -9.7.

`Cc1ccc(S(N)(=O)=O)cc1` [P-TOLUENESULFONAMIDE]: the “Log Ki” value is recorded as -6.5.

For `CC(C)(C)c1ccc(C(=O)Nc2ccccc2S(N)(=O)=O)cc1`, the “Log Ki” value was -6.6.
